How the values were obtained:
[1] = tested on: K. pneumoniae O1; assay: Flow cytometry analysis of galectin binding to intact bacteria; parameters: species or system Klebsiella pneumoniae O1
Method: (§1) To examine potential binding by each galectin, bacteria were resuspended and washed twice in PBS at 4°C and then incubated with 0.1μM Alexa Fluor™ 488 labeled Gal-3 or Gal-3C at 4°C for 20min. In some experiments, Gal-3 or Gal-3C were co-incubated with 20mM thiodigalactoside (TDG) for 10min before incubation with the bacteria as a control. After incubation, cells were washed twice and resuspended them in 400μl PBS for flow cytometry analysis using FACSCanto II flow cytometer (BD Biosciences). The data were processed with FlowJo version 10.

[2] = tested on: P. alcalifaciens O5; assay: as above; parameters: species or system Providentia alcalifaciens O5
Method: as §1

[3] = tested on: P. alcalifaciens O5; assay: Bacteria viability by CFU enumeration; format: cell-based, Providentia alcalifaciens O5; conditions: 37°C, 2h
Method: (§2) When assaying potential antimicrobial effects of Gal-3 and Gal-3C, each strain was assessed in the mid-logarithmic growth phase (OD600 of ~0.1) and grown in LB media as outlined previously ([Arthur et al., 2015b]). Bacterial cells were incubated with the concentrations of each galectin indicated in the figure legends (0.04–10μM) at 37°C for 2h with shaking at 250rpm. Bacteria were then pipetted and plated on LB agar plate to determine the number of viable bacteria by CFU enumeration.

[4] = tested on: P. alcalifaciens O21; assay: Flow cytometry analysis of galectin binding to intact bacteria; parameters: species or system Providentia alcalifaciens O21; conditions: 0.1μM Alexa Fluor 488 labeled galectin, 4°C, 20min
Method: as §1

[5] = tested on: K. pneumoniae O1; assay: Bacteria viability by CFU enumeration; format: cell-based, Klebsiella pneumoniae O1; conditions: 37°C, 2h
Method: as §2

[6] = tested on: K. pneumoniae O4; assay: Bacteria viability by CFU enumeration; format: cell-based, Klebsiella pneumoniae O4; conditions: 0.04–10μM, 37°C, 2h
Method: as §2

[7] = tested on: P. alcalifaciens O21; assay: Bacteria viability by CFU enumeration; format: cell-based, Providentia alcalifaciens O21; conditions: 0.04–10μM, 37°C, 2h
Method: as §2

[8] = target: T1, human Gal-3 (Homo sapiens, UniProt P17931); assay: CFG glycan microarray binding of Alexa Fluor 488 labeled Gal-3
T1 construct: made in house; host or cells: E. coli BL21 (DE3)
T1 sequence (P17931 whole entry): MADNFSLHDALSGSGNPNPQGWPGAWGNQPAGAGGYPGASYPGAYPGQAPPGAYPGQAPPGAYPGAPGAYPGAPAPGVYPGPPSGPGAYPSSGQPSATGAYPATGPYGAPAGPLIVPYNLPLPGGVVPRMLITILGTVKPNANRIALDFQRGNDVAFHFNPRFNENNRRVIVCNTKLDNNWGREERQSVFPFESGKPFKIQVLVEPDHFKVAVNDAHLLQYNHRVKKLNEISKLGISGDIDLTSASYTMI
Method: (§3) Galectins were labeled with Alexa Fluor™ 488 NHS Ester (succinimidyl ester) by incubating 2mg/ml galectin with 1mg Alexa Fluor™ 488 for 1h at room temperature and avoid from light as outlined previously ([Stowell et al., 2004]). […] While 2-ME is not required for Gal-3 activity, this approach was used to provide a consistent protocol for all galectin purification. […] Finally, labeled galectin was applied to CFG glycan microarray (CFG) and MGM prepared as described previously ([Blixt et al., 2004]; [Stowell et al., 2008a], [2014]; [Song et al., 2009]; [Wu et al., 2021a]). […] The slide was dried by microcentrifugation, and an image of bound fluorescence was obtained using a microarray scanner (GenePix 4000 B, Molecular devices). […] For non-saturated positive glycan interactions, the relative fluorescence units were plotted as a percent of the maximal binding at the highest concentration examined.
(§4) In order to compare the relative binding affinities of Gal-3 and Gal-3C toward blood group antigens and other glycan structures present on the array, we calculated the relative KD generated from binding isotherm data for each galectin toward various blood group antigens, polylactosamine (polyLacNAc), and other common structural modifications previously shown to influence galectin recognition (e.g., α2-6 sialylation).

[9] = target: T2, human Gal-3C (C-terminal domain of Gal-3) (Homo sapiens, UniProt P17931); assay: CFG glycan microarray binding of Alexa Fluor 488 labeled Gal-3C
T2 construct: made in house; host or cells: E. coli BL21 (DE3)
T2 sequence (P17931 118-248 limits assumed): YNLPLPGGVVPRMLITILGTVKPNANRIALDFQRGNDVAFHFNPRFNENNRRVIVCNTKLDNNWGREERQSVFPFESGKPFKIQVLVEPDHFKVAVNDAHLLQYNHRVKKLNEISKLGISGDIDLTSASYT
Method: as §3, §4

[10] = 20mM TDG co-incubated with galectin
[11] = 0.1μM Alexa Fluor 488 labeled galectin, 4°C, 20min

Molecule: OC[C@H]1O[C@@H](S[C@@H]2O[C@H](CO)[C@H](O)[C@H](O)[C@H]2O)[C@H](O)[C@@H](O)[C@H]1O [TDG, thiodigalactoside, reference compound]
- effect on Gal-3 and Gal-3C binding to K. pneumoniae O1 [1, 10]: prevented binding
- effect on Gal-3 and Gal-3C engagement of P. alcalifaciens O5 [2, 10]: inhibited recognition

Molecule: Gal-3: recombinant human galectin-3, full-length chimeric galectin expressed in E. coli
- impact on viability of P. alcalifaciens O5 ([3]; 0.04–10μM): reduced viability
- EC50 ([3]; CFU enumeration, read-out: effective concentration 50 (EC50), viability of P. alcalifaciens O5): ~0.17 µM
- binding to P. alcalifaciens O21 [4]: failed to result in any detectable binding
- binding to K. pneumoniae O1 [1, 11]: bound K. pneumoniae O1
- impact on viability of K. pneumoniae O1 ([5]; 0.04–10μM): loss of microbial viability was noted at higher concentrations
- EC50 ([5]; CFU enumeration, read-out: EC50 toward K. pneumoniae O1 viability): 0.75 µM
- impact on viability of K. pneumoniae O4 [6]: failed to impact the viability
- binding to P. alcalifaciens O5 [2, 11]: Clear interactions
- impact on viability of P. alcalifaciens O21 [7]: failed to result in any detectable impact on microbial viability

Molecule: blood group B
- Gal-3 concentration at which recognition was observed ([8]; CFG array, virtually no binding at or below 0.12μM): 0.36 µM
- Gal-3 binding on CFG array ([8]; binding isotherms, Fig 2 and 3): high affinity interactions
- Gal-3C concentration required for similar absolute binding as Gal-3 at […] ([9]; CFG array): 3.3 µM
- Gal-3C binding on CFG array ([9]; binding isotherms, Fig 2): high affinity interactions
